{
  "source": "ChEMBL document CHEMBL3872220",
  "about": "“Amphiphilic xanthones as a potent chemical entity of anti-mycobacterial agents with membrane-targeting properties” (Eur J Med Chem, 2016)",
  "data": [
    {"test_system": "Mycobacterium tuberculosis variant bovis", "test": "Antimycobacterial activity against Mycobacterium bovis BCG ATCC 35734 after 5 days by broth dilution assay", "format": "functional", "settings": "ATCC 35734, 120 h", "units": {"MIC90": "µM"}, "values": [
      {"smiles": "CCN(CC)CCCCOc1cc2oc3cc(OCCCCN(CC)CC)c(OC)c(CCC(C)C)c3c(=O)c2c(O)c1CCC(C)C", "MIC90": 6.4},
      {"smiles": "CN[C@@H]1[C@H](O[C@H]2[C@H](O[C@H]3[C@H](O)[C@@H](O)[C@H](N=C(N)N)[C@@H](O)[C@@H]3N=C(N)N)O[C@@H](C)[C@]2(O)C=O)O[C@@H](CO)[C@H](O)[C@H]1O", "note": "[STREPTOMYCIN]", "MIC90": 0.39},
      {"smiles": "COc1c(OCC(=O)NC(CCCNC(=N)N)C(N)=O)cc2oc3cc(OCC(=O)NC(CCCNC(=N)N)C(N)=O)c(CC=C(C)C)c(O)c3c(=O)c2c1CC=C(C)C", "note": "(centres undefined)", "MIC90": "> 30"},
      {"smiles": "COc1c(OCC(O)CNCCNCCNCCN)cc2oc3cc(OCC(O)CNCCNCCNCCN)c(CC=C(C)C)c(O)c3c(=O)c2c1CC=C(C)C", "note": "(centres undefined)", "MIC90": "> 30"},
      {"smiles": "COc1c(OCC(O)CNCCN)cc2oc3cc(OCC(O)CNCCN)c(CC=C(C)C)c(O)c3c(=O)c2c1CC=C(C)C", "note": "(centres undefined)", "MIC90": "> 30"},
      {"smiles": "COc1c(OCCCCN(C)C)cc2oc3cc(OCCCCN(C)C)c(CCC(C)C)c(O)c3c(=O)c2c1CCC(C)C", "MIC90": 6.4},
      {"smiles": "COc1c(OCCCCN2CCOCC2)cc2oc3cc(OCCCCN4CCOCC4)c(CC=C(C)C)c(OCCCCN4CCOCC4)c3c(=O)c2c1CC=C(C)C", "MIC90": 12.8},
      {"smiles": "CC[C@@H](CO)NCCN[C@@H](CC)CO", "note": "[ETHAMBUTOL]", "MIC90": 6.25},
      {"smiles": "COc1c(OCC(O)CNC(CO)(CO)CO)cc2oc3cc(OCC(O)CNC(CO)(CO)CO)c(CC=C(C)C)c(O)c3c(=O)c2c1CC=C(C)C", "note": "(centres undefined)", "MIC90": "> 30"},
      {"smiles": "CCN(CC)CCCOc1cc2oc3cc(OCCCN(CC)CC)c(OC)c(CC=C(C)C)c3c(=O)c2c(O)c1CC=C(C)C", "MIC90": 6.4},
      {"smiles": "CCCCN(CC)CCCCOc1cc2oc3cc(OCCCCN(CC)CCCC)c(OC)c(CC=C(C)C)c3c(=O)c2c(O)c1CC=C(C)C", "MIC90": 3.2},
      {"smiles": "COC(=O)C(Cc1cnc[nH]1)NC(=O)COc1cc2oc3cc(OCC(=O)NC(Cc4cnc[nH]4)C(=O)OC)c(OC)c(CC=C(C)C)c3c(=O)c2c(O)c1CC=C(C)C", "note": "(centres undefined)", "MIC90": "> 30"},
      {"smiles": "CCN(CC)CCOc1cc2oc3cc(OCCN(CC)CC)c(OC)c(CC=C(C)C)c3c(=O)c2c(O)c1CC=C(C)C", "MIC90": 6.4},
      {"smiles": "CCCN(CCC)CC(O)COc1cc2oc3cc(OCC(O)CN(CCC)CCC)c(OC)c(CC=C(C)C)c3c(=O)c2c(O)c1CC=C(C)C", "note": "(centres undefined)", "MIC90": 6.4},
      {"smiles": "CCN(CC)CCCCCCCOc1cc2oc3cc(OCCCCCCCN(CC)CC)c(OC)c(CC=C(C)C)c3c(=O)c2c(O)c1CC=C(C)C", "MIC90": 6.4},
      {"smiles": "COc1c(OCC(O)CNCCNC(=N)N)cc2oc3cc(OCC(O)CNCCNC(=N)N)c(CC=C(C)C)c(O)c3c(=O)c2c1CC=C(C)C", "note": "(centres undefined)", "MIC90": "> 30"},
      {"smiles": "COC(=O)C(CCCNC(=N)N)NC(=O)COc1cc2oc3cc(OCC(=O)NC(CCCNC(=N)N)C(=O)OC)c(OC)c(CC=C(C)C)c3c(=O)c2c(O)c1CC=C(C)C", "note": "(centres undefined)", "MIC90": 12.8},
      {"smiles": "CCN(CC)CCCCOc1ccc2c(=O)c3c(O)cc(OCCCCN(CC)CC)cc3oc2c1", "MIC90": "> 30"},
      {"smiles": "COc1c(OCCCCN2CCSCC2)cc2oc3cc(OCCCCN4CCSCC4)c(CC=C(C)C)c(O)c3c(=O)c2c1CC=C(C)C", "MIC90": 30},
      {"smiles": "CCN(CC)CCCCOc1cc2oc3cc(OCCCCN(CC)CC)c(OC)c(CC=C(C)C)c3c(=O)c2c(OCCCCN(CC)CC)c1CC=C(C)C", "MIC90": 6.4},
      {"smiles": "CCN(CC)CC(O)COc1cc2oc3cc(OCC(O)CN(CC)CC)c(OC)c(CC=C(C)C)c3c(=O)c2c(O)c1CC=C(C)C", "note": "(centres undefined)", "MIC90": 6.4},
      {"smiles": "NNC(=O)c1ccncc1", "note": "[ISONIAZID]", "MIC90": 6.25},
      {"smiles": "CO[C@H]1/C=C/O[C@@]2(C)Oc3c(C)c(O)c4c(O)c(c(/C=N/N5CCN(C)CC5)c(O)c4c3C2=O)NC(=O)/C(C)=C\\C=C\\[C@H](C)[C@H](O)[C@@H](C)[C@@H](O)[C@@H](C)[C@H](OC(C)=O)[C@@H]1C", "note": "[RIFAMPIN]", "MIC90": 0.02}
    ]},
    {"test_system": "Mycobacterium tuberculosis variant bovis", "test": "Bactericidal activity against Mycobacterium bovis BCG ATCC 35734 assessed as log reduction in bacterial colonies up to 8 times MIC measured after 24 hrs by time-kill assay", "format": "functional, Mycobacterium tuberculosis variant bovis BCG", "settings": "not given", "values": [
      {"smiles": "NNC(=O)c1ccncc1", "note": "[ISONIAZID]", "Activity": 2.6}
    ]}
  ]
}
